Earlier results as cited in patent publication US11566140B2, “Exterior coating composition” (Troy Corporation, priority 2019, dated 2023).

Conditions: 5 grams of pure BIT completely soluble in 100 ml of methanol

O=c1[nH]sc2ccccc12 [BIT, 1,2-benzisothiazolin-3-one]
solubility in methanol: greater than 5%
